PMC5457731, “Molecular cloning, expression, and characterization of four novel thermo-alkaliphilic enzymes retrieved from a metagenomic library” (Biotechnology for Biofuels, 2017)

Experiments:
Assay in all cases: pNP release at […] nm, Lineweaver-Burk
Conditions in all cases: 50 mM Tris-HCl pH 7.5, 40 °C, 15 min
[1] = tested on: T1, protein 1 (gene 1 product, fosmid NT2-2); type: biochemical, uncultured bacterium
T1 construct: full-length, pET28b(+) His-tags at N and C termini, E. coli Origami2(DE3) pLysS, ~116 kDa, gene amplicon 3146 bp

[2] = tested on: T2, protein 6 (gene 6 product, fosmid NT18-17); type: biochemical
T2 construct: full-length, pET28b(+) His-tags at N and C termini, E. coli Origami2(DE3) pLysS, ~22 kDa, gene amplicon 673 bp; alpha-glucosidase assignment unusual, host contaminant possible

[3] = tested on: T3, protein 5 (gene 5 product, fosmid 10BT); type: biochemical
T3 construct: full-length, pET28b(+) His-tags at N and C termini, E. coli Origami2(DE3) pLysS, ~45 kDa, gene amplicon 1262 bp; alpha-glucosidase assignment unusual, host contaminant possible

[4] = tested on: T4, protein 2 (gene 2 product, fosmid T5-5); type: biochemical, uncultured bacterium
T4 construct: full-length, pET28b(+) His-tags at N and C termini, E. coli Origami2(DE3) pLysS, ~85 kDa, gene amplicon 2410 bp

SMILES: O=[N+]([O-])c1ccc(O[C@@H]2O[C@H](CO)[C@H](O)[C@H](O)[C@H]2O)cc1 [pNP-β-D-galactopyranoside]
- Km [1]: 100 µM

SMILES: O=[N+]([O-])c1ccc(O[C@H]2O[C@H](CO)[C@@H](O)[C@H](O)[C@H]2O)cc1 [pNP-α-D-glucopyranoside]
- Km [2]: 21400 µM
- Km [3]: 7400 µM

SMILES: O=[N+]([O-])c1ccc(O[C@@H]2OC[C@@H](O)[C@H](O)[C@H]2O)cc1 [pNP-β-D-xylopyranoside]
- Km [4]: 1000 µM

SMILES: O=[N+]([O-])c1ccc(O[C@@H]2OC[C@H](O)[C@H](O)[C@H]2O)cc1 [pNP-α-L-arabinopyranoside]
- Km [4]: 300 µM
